Results published in ChEMBL document CHEMBL5303573, “Mapping human microbiome drug metabolism by gut bacteria and their genes” (Nature, 2019).

Columns and labels:
[1] = The drug is tested on Bacteroides fragilis strain: ATCC43859 for biotransformation. The drug concentrations were measured before and after a 12-h incubation by liquid-chromatography-coupled mass spectrometry (LC–MS); conditions: 2 µM
[2] = The drug is tested on Odoribacter splanchnicus strain: fecal isolate for biotransformation. The drug concentrations were measured before and after a 12-h incubation by liquid-chromatography-coupled mass spectrometry (LC–MS); conditions: 2 µM
[3] = The drug is tested on Bifidobacterium ruminantium strain: fecal isolate for biotransformation. The drug concentrations were measured before and after a 12-h incubation by liquid-chromatography-coupled mass spectrometry (LC–MS); conditions: 2 µM
[4] = bacteroides thetaiotaomicron, 12 h, 2 µM
Description: The drug is tested on Bacteroides thetaiotaomicron strain: 7330 for biotransformation. The drug concentrations were measured before and after a 12-h incubation by liquid-chromatography-coupled mass spectrometry (LC–MS)

[5] = parabacteroides johnsonii, 12 h, 2 µM
Description: The drug is tested on Parabacteroides johnsonii strain: DSM18315 for biotransformation. The drug concentrations were measured before and after a 12-h incubation by liquid-chromatography-coupled mass spectrometry (LC–MS)

[6] = The drug is tested on Bifidobacterium longum subsp. Infantis strain: CCUG52486 for biotransformation. The drug concentrations were measured before and after a 12-h incubation by liquid-chromatography-coupled mass spectrometry (LC–MS); conditions: 2 µM
[7] = The drug is tested on Clostridium symbiosum strain: ATCC14940 for biotransformation. The drug concentrations were measured before and after a 12-h incubation by liquid-chromatography-coupled mass spectrometry (LC–MS); conditions: 2 µM
[8] = The drug is tested on Collinsella intestinalis strain: DSM13280 for biotransformation. The drug concentrations were measured before and after a 12-h incubation by liquid-chromatography-coupled mass spectrometry (LC–MS); conditions: 2 µM
[9] = roseburia intestinalis, 12 h, 2 µM
Description: The drug is tested on Roseburia intestinalis strain: L1-82 for biotransformation. The drug concentrations were measured before and after a 12-h incubation by liquid-chromatography-coupled mass spectrometry (LC–MS)

[10] = bifidobacterium adolescentis, 12 h, 2 µM
Description: The drug is tested on Bifidobacterium adolescentis strain: ATCC 15703 for biotransformation. The drug concentrations were measured before and after a 12-h incubation by liquid-chromatography-coupled mass spectrometry (LC–MS)

[11] = The drug is tested on Bacteroides sp. WH2 strain: WH2 for biotransformation. The drug concentrations were measured before and after a 12-h incubation by liquid-chromatography-coupled mass spectrometry (LC–MS); conditions: bacteroides sp. wh2, 12 h, 2 µM
[12] = The drug is tested on Bifidobacterium breve strain: DSM20213 for biotransformation. The drug concentrations were measured before and after a 12-h incubation by liquid-chromatography-coupled mass spectrometry (LC–MS); conditions: 2 µM
[13] = bacteroides intestinalis, 12 h, 2 µM
Description: The drug is tested on Bacteroides intestinalis strain: DSM17393 for biotransformation. The drug concentrations were measured before and after a 12-h incubation by liquid-chromatography-coupled mass spectrometry (LC–MS)

[14] = The drug is tested on Bacteroides uniformis strain: ATCC8492 for biotransformation. The drug concentrations were measured before and after a 12-h incubation by liquid-chromatography-coupled mass spectrometry (LC–MS); conditions: 2 µM
[15] = The drug is tested on Enterobacter cancerogenus strain: ATCC35316 for biotransformation. The drug concentrations were measured before and after a 12-h incubation by liquid-chromatography-coupled mass spectrometry (LC–MS); conditions: 2 µM
[16] = The drug is tested on Edwardsiella tarda strain: ATCC23685 for biotransformation. The drug concentrations were measured before and after a 12-h incubation by liquid-chromatography-coupled mass spectrometry (LC–MS); conditions: 2 µM
[17] = victivallis vadensis, 12 h, 2 µM
Description: The drug is tested on Victivallis vadensis strain: ATCC BAA-548 for biotransformation. The drug concentrations were measured before and after a 12-h incubation by liquid-chromatography-coupled mass spectrometry (LC–MS)

[18] = The drug is tested on Clostridium ramosum strain: DSM1402 for biotransformation. The drug concentrations were measured before and after a 12-h incubation by liquid-chromatography-coupled mass spectrometry (LC–MS); conditions: thomasclavelia ramosa, 2 µM
[19] = bacteroides thetaiotaomicron, 12 h, 2 µM; remark: listed apart in the source
Description: The drug is tested on Bacteroides thetaiotaomicron strain: 3731 for biotransformation. The drug concentrations were measured before and after a 12-h incubation by liquid-chromatography-coupled mass spectrometry (LC–MS)

[20] = The drug is tested on Bacteroides fragilis strain: HMW615 for biotransformation. The drug concentrations were measured before and after a 12-h incubation by liquid-chromatography-coupled mass spectrometry (LC–MS); conditions: 2 µM
[21] = The drug is tested on Enterococcus faecalis strain: V583 for biotransformation. The drug concentrations were measured before and after a 12-h incubation by liquid-chromatography-coupled mass spectrometry (LC–MS); conditions: 2 µM
[22] = bacteroides eggerthii, 12 h, 2 µM
Description: The drug is tested on Bacteroides eggerthii strain: DSM20697 for biotransformation. The drug concentrations were measured before and after a 12-h incubation by liquid-chromatography-coupled mass spectrometry (LC–MS)

[23] = The drug is tested on Blautia luti strain: DSM14534 for biotransformation. The drug concentrations were measured before and after a 12-h incubation by liquid-chromatography-coupled mass spectrometry (LC–MS); assay type: ADME; parameters: dose 2 uM, timepoint 0 vs 12 hours; conditions: 2 µM
[24] = The drug is tested on Ruminococcus torques strain: ATCC27756 for biotransformation. The drug concentrations were measured before and after a 12-h incubation by liquid-chromatography-coupled mass spectrometry (LC–MS); assay type: ADME; parameters: dose 2 uM, timepoint 0 vs 12 hours; conditions: 2 µM
[25] = The drug is tested on Bacteroides caccae strain: ATCC43185 for biotransformation. The drug concentrations were measured before and after a 12-h incubation by liquid-chromatography-coupled mass spectrometry (LC–MS); conditions: 2 µM
[26] = The drug is tested on Bacteroides xylanisolvens strain: DSM18836 for biotransformation. The drug concentrations were measured before and after a 12-h incubation by liquid-chromatography-coupled mass spectrometry (LC–MS); conditions: 2 µM
[27] = limosilactobacillus reuteri cf48-3a, 12 h, 2 µM
Description: The drug is tested on Lactobacillus reuteri CF48-3A strain: BEI HM-102 for biotransformation. The drug concentrations were measured before and after a 12-h incubation by liquid-chromatography-coupled mass spectrometry (LC–MS)

[28] = parabacteroides distasonis, 12 h, 2 µM
Description: The drug is tested on Parabacteroides distasonis strain: ATCC8503 for biotransformation. The drug concentrations were measured before and after a 12-h incubation by liquid-chromatography-coupled mass spectrometry (LC–MS)

[29] = segatella copri, 12 h, 2 µM
Description: The drug is tested on Prevotella copri strain: DSM18205 for biotransformation. The drug concentrations were measured before and after a 12-h incubation by liquid-chromatography-coupled mass spectrometry (LC–MS)

[30] = bacteroides stercoris, 12 h, 2 µM
Description: The drug is tested on Bacteroides stercoris strain: ATCC43183 for biotransformation. The drug concentrations were measured before and after a 12-h incubation by liquid-chromatography-coupled mass spectrometry (LC–MS)

[31] = The drug is tested on Bacteroides cellulosilyticus strain: DSM14838 for biotransformation. The drug concentrations were measured before and after a 12-h incubation by liquid-chromatography-coupled mass spectrometry (LC–MS); conditions: 2 µM
[32] = The drug is tested on Clostridium asparagiforme strain: DSM15981 for biotransformation. The drug concentrations were measured before and after a 12-h incubation by liquid-chromatography-coupled mass spectrometry (LC–MS); assay type: ADME; parameters: dose 2 uM, timepoint 0 vs 12 hours; conditions: enterocloster asparagiformis, 2 µM
[33] = The drug is tested on Bacteroides fragilis strain: HMW610 for biotransformation. The drug concentrations were measured before and after a 12-h incubation by liquid-chromatography-coupled mass spectrometry (LC–MS); conditions: 2 µM
[34] = anaerostipes sp., 12 h, 2 µM
Description: The drug is tested on Anaerostipes sp. strain: fecal isolate for biotransformation. The drug concentrations were measured before and after a 12-h incubation by liquid-chromatography-coupled mass spectrometry (LC–MS)

[35] = bacteroides thetaiotaomicron, 12 h, 2 µM; remark: listed apart in the source
Description: The drug is tested on Bacteroides thetaiotaomicron strain: VPI-5482 for biotransformation. The drug concentrations were measured before and after a 12-h incubation by liquid-chromatography-coupled mass spectrometry (LC–MS)

[36] = The drug is tested on Collinsella aerofaciens strain: ATCC25986 for biotransformation. The drug concentrations were measured before and after a 12-h incubation by liquid-chromatography-coupled mass spectrometry (LC–MS); conditions: 2 µM
[37] = The drug is tested on Providencia stuartii strain: ATCC25827 for biotransformation. The drug concentrations were measured before and after a 12-h incubation by liquid-chromatography-coupled mass spectrometry (LC–MS); conditions: 2 µM
[38] = The drug is tested on Bacteroides pectinophilus strain: ATCC43243 for biotransformation. The drug concentrations were measured before and after a 12-h incubation by liquid-chromatography-coupled mass spectrometry (LC–MS); conditions: 2 µM
[39] = The drug is tested on Ruminococcus gnavus strain: ATCC29149 for biotransformation. The drug concentrations were measured before and after a 12-h incubation by liquid-chromatography-coupled mass spectrometry (LC–MS); conditions: mediterraneibacter gnavus, 2 µM
[40] = bacteroides fragilis, 12 h, 2 µM
Description: The drug is tested on Bacteroides fragilis strain: NCTC 9343 for biotransformation. The drug concentrations were measured before and after a 12-h incubation by liquid-chromatography-coupled mass spectrometry (LC–MS)

[41] = akkermansia muciniphila, 12 h, 2 µM
Description: The drug is tested on Akkermansia muciniphila strain: ATCC BAA-835 for biotransformation. The drug concentrations were measured before and after a 12-h incubation by liquid-chromatography-coupled mass spectrometry (LC–MS)

[42] = The drug is tested on Bacteroides vulgatus strain: ATCC8482 for biotransformation. The drug concentrations were measured before and after a 12-h incubation by liquid-chromatography-coupled mass spectrometry (LC–MS); conditions: phocaeicola vulgatus, 2 µM
[43] = The drug is tested on Bacteroides coprophilus strain: DSM18228 for biotransformation. The drug concentrations were measured before and after a 12-h incubation by liquid-chromatography-coupled mass spectrometry (LC–MS); conditions: 2 µM
[44] = bacteroides fragilis, 12 h, 2 µM; remark: listed apart in the source
Description: The drug is tested on Bacteroides fragilis strain: DS-208 for biotransformation. The drug concentrations were measured before and after a 12-h incubation by liquid-chromatography-coupled mass spectrometry (LC–MS)

[45] = The drug is tested on Eubacterium hallii strain: DSM3353 for biotransformation. The drug concentrations were measured before and after a 12-h incubation by liquid-chromatography-coupled mass spectrometry (LC–MS); conditions: anaerobutyricum hallii, 2 µM

Measured: Bacterial Biotransformation

Cc1ccccc1N1C(=O)c2cc(S(N)(=O)=O)c(Cl)cc2NC1C (stereo not given) [METOLAZONE]
Compound NOT metabolized: all assays above
